For one assay, the target named is T1, H3 receptor (Rattus norvegicus, UniProt Q9QYN8).
T1 construct: ½-maximal H3 receptor occupancy in the brain following intraperitoneal administration; from tissue; host or cells: brain of dosed animals
The assay is described as follows: Ex vivo binding: H3 receptor occupancy in the brain following intraperitoneal administration. An excerpt: (§1) The percent reduction in food intake by rats two hours after intraperitoneal administration of each compound is shown in Table 5. […] In Table 5, * indicates a significant decrease in food intake compared to the vehicle-treated rats (t-test, p<0.05). The ex vivo binding values in Table 5 represent the drug dose required to obtain ½-maximal H3 receptor occupancy in the brain following intraperitoneal administration. The dose values shown in Table 5 represent the dosage of drug utilized during the food intake studies. In all cases, the tested dose exceeded the amount needed to obtain ½-maximal H3 receptor occupancy in the brain.

Another assay has as its target T2, Histamine H3 receptor (Rattus norvegicus, UniProt Q9QYN8).
T2 construct: The cerebral cortical tissues were harvested and frozen on dry ice; from tissue; host or cells: cerebral cortex membranes of male Sprague-Dawley rats
The assay can be described thus: Histamine H3 receptor binding analysis, [3H]-Nα-methylhistamine competition in rat cerebral cortical membranes, with and without GTPγS.

The next assay concerns Sprague-Dawley rats. The assay can be described thus: Food intake study in Sprague-Dawley rats. It is filed as in vivo, rat. The following applies: for cumulative food intake, mean (g) ± sem: 10 mg/kg i.p., rats. The protocol:
The compounds summarized in Table 3 were examined for their ability to suppress food consumption by adult Sprague-Dawley rats. Male Sprague Dawley rats were purchased from Harlan Laboratories of Indianapolis, Ind. Rats were housed one per cage and maintained on a 12 hour light/dark schedule (lights-out at 12:30 p.m.) with ad libitum access to powdered Teklad Mouse/Rat Diet 7012 (available from Harlan Laboratories of Indianapolis, Ind.) and water. Rats were acclimated to laboratory conditions and food for 1 to 2 weeks prior to initiating food intake studies. On the day of experiments, test compounds were solubilized or suspended in vehicle/carrier and administered to rats (i.p. or p.o.) 30 to 60 minutes prior to the onset of the dark cycle. Food intake was determined at 1, 2, 4, and 24 hours following the onset of the dark cycle. Alternatively, rats were fasted (water provided) for 24 hours prior to evaluating the effects of compounds on food intake. For these studies, compounds or vehicle/carrier were administered and rats were placed in standard small animal metabolism chambers with ad ibitum access to powdered Teklad Mouse/Rat Diet 7012 and water. Food intake was determined at 2 and 4 hours following the onset of feeding.
Data is cumulative food intake in grams, mean±sem. In the table, * indicates a significant decrease in food intake compared to the vehicle-treated rats (t-test, p<0.05).
as §1

The structures appear in SMILES notation. Marks after values point to notes of the source that are not given here.

T2 sequence (Q9QYN8 whole entry): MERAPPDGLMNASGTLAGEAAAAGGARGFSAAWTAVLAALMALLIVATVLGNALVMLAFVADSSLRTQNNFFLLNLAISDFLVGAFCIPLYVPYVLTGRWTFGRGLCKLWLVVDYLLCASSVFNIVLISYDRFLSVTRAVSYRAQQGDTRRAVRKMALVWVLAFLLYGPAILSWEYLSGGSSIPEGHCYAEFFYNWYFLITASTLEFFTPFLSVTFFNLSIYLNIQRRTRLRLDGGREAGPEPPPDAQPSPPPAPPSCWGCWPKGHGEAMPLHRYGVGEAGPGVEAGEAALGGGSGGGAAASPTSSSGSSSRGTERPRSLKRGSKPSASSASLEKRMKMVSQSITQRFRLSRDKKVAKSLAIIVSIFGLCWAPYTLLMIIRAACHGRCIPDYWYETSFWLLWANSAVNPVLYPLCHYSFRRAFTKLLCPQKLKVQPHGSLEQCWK
T1 sequence (Q9QYN8 whole entry): as above
Experimental for Histamine H3 receptor: A histamine H3 receptor binding analysis to determine the affinity of various imidazole derivatives for G-protein uncoupled receptors was performed as follows. […] Animals were acclimated to laboratory conditions for a minimum of one week prior to tissue harvesting.
Animals were anesthetized by NO2 inhalation and euthanized by rapid decapitation. The cerebral cortical tissues were harvested and frozen on dry ice. Rat corticies were mechanically homogenized using a Tissue Tearer in 25 mM Tris buffer (pH 7.5 at 4° C.) containing: EDTA (10 mM), phenylmethylsulfonyl fluoride (0.1 mM), chymostatin and leupeptin (each 0.2 mg/50 mL). The homogenate was centrifuged in a Sorvall centrifuge at 40,000×g for 30 minutes. The pellet was re-suspended in 25 ml water and lysed on ice for 30 minutes. The homogenate was then re-centrifuged and the membrane lysis was repeated. The membranes were centrifuged and the final membrane pellets were resuspended in 14 volumes of water to yield approximately 200 μg protein/100 μl final concentration. The suspension was stored frozen at −80° C. prior to use. Protein concentrations were determined using the Coomassie Plus Protein Assay (available from Pierce of Rockford, Ill.).
GTPγS causes dissociation of G-protein from receptors. Data are shown as percent of [^3H]-N^α-methylhistamine bound (mean) for each table.

On to `O=C(N[C@@H]1C[C@H]1c1c[nH]cn1)OCC1CCCCC1` [Compound 3, 4-((1R,2R)-trans-2-(O-(2-cyclohexylmethyl)carboxamido)cyclopropyl)imidazole], for which the “Ex Vivo Binding (drug dose required to obtain ½-maximal H3 receptor occupancy in the brain)” value on H3 receptor is reported as 2.6 ± 1.3 mg/kg. Moreover, the Ki on Histamine H3 receptor (Ki (+) GTPγS, GTPγS-treated receptor preparation (G-protein uncoupled)) was 4.2 nM; at Histamine H3 receptor (Ki (−) GTPγS, untreated receptor preparation (mixture of coupled and uncoupled H3 receptors)) it was 10.1 nM. For the same molecule, on Histamine H3 receptor (Ki without GTPγS / Ki with GTPγS), the “Ki Ratio (−/+)” value stood at 2.4. Besides, the “cumulative food intake, mean (g) ± sem” value in the assay with Sprague-Dawley rats (1 hr following onset of dark cycle) is 1.8 ± 0.3* g; with Sprague-Dawley rats (2 hr following onset of dark cycle), 4.4 ± 0.2* g; in the assay on Sprague-Dawley rats (4 hr following onset of dark cycle) it was 7.1 ± 0.5* g; in the assay on Sprague-Dawley rats (24 hr following onset of dark cycle), 17.4 ± 1.2* g. For the same molecule, the “effect of a single administration on food consumption” value in the assay on Sprague-Dawley rats (single administration, up to 24 hours, result in words) was “significant reduction of food consumption”.

The values above are taken from patent US20030069295A1, “Use of histamine H3 receptor inverse agonists for the control of appetite and treatment of obesity” (Gliatech, Inc., priority 2001, published 2003).
